Measured values as given in US5317039A, “Cyclopropyl-alanine aryl/alkylsulfide/sulfonyl-terminated amino-diol compounds for treatment of hypertension” (G. D. Searle & Co., priority 1992, dated 1994).
pIC50: −log10 of the molar value. Square brackets hold non-standard residues; d marks the D form. Peptide text beside a SMILES is read from it. * marks the point of attachment. Sta = CC(C)C[C@H](N)[C@@H](O)CC(=O)O; Isovaleryl = CC(C)CC(=O)*

Tests used:
[1] = target: T1, human renin (Homo sapiens, UniProt P00797); assay: Human Renin Inhibition in vitro; format: biochemical; settings: pH 7.4, 2 h at 37° C., human plasma, angiotensin I by radioimmunoassay
T1 construct: purchased National Institute for Biological Standards, London
T1 sequence (P00797 67-406): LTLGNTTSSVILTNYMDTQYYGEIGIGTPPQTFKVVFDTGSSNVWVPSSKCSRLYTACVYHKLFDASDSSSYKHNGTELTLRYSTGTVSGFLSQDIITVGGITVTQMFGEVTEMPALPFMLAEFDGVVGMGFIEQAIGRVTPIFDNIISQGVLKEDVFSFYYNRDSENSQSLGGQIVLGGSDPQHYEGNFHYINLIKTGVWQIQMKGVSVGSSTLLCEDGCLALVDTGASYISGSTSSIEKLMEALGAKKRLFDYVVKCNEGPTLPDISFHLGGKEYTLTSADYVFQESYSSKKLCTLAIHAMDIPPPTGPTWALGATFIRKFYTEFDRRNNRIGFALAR
Description: Compounds of Formula I were evaluated as inhibitors of human renin in an in vitro assay, as follows: This human renin inhibition test has been previously described in detail [Papaioannou et al., Clinical and Experimental Hypertension, A7(9), 1243-1257 (1985)]. Human renin was obtained from the National Institute for Biological Standards, London. An incubation mixture was prepared containing the following components: in a total volume of 0.25 mL: 100 mM Tris-acetate buffer at pH 7.4, 25×10^-6 Goldblatt units of renin, 0.05 mL of plasma from human volunteers taking oral contraceptives, 6.0 mM Na-EDTA, 2.4 mM phenylmethyl sulfonyl fluoride, 1.5 mM 8-hydroxyquinoline, 0.4 mg/mL bovine serum albumin (BSA), and 0.024 mg/mL neomycin sulfate. This mixture was incubated for two hours at 37° C. in the presence or absence of renin inhibitors. The produced angiotensin I was determined by radioimmunoassay (New England Nuclear kit). Test compounds to be assayed were dissolved in DMSO and diluted with 100 mM Tris-acetate buffer at pH 7.4 containing 0.5% BSA to the appropriate concentration. The final concentration of organic solvent in the reaction mixture was less than 1%. Control incubations at 37° C. were used to correct for effects of organic solvent on renin activity.

[2] = test system: cathepsin D; settings: cited from earlier work
[3] = test system: pepsin; settings: cited from earlier work
[4] = test system: hog renin; settings: nephrectomized rats, after injection of hog renin; cited from earlier work
[5] = test system: renin; settings: cited from earlier work

Row | SMILES | pIC50 [1] | inhibitor of cathepsin D [2] | inhibitor of pepsin [3] | reduce blood pressure in vivo [4] | inhibitor of renin [5]
1 | CC(C)C[C@H](O)[C@H](O)[C@H](CC1CCCCC1)NC(=O)[C@H](CC1CC1)NC(=O)C(CSC(C)(C)C)Cc1ccccc1 (stereo partly drawn) [Example 2] | 8.57 | – | – | – | –
2 | CC(C)C[C@H](O)[C@H](O)[C@H](CC1CCCCC1)NC(=O)[C@H](CC1CC1)NC(=O)C(Cc1ccccc1)CS(=O)(=O)C(C)(C)C (stereo partly drawn) [Example 1] | 9.52 | – | – | – | –
3 | CC(C)CC(=O)N[C@H](C(=O)N[C@H](C(=O)N[C@@H](CC(C)C)[C@@H](O)CC(=O)N[C@@H](C)C(=O)N[C@@H](CC(C)C)[C@@H](O)CC(=O)O)C(C)C)C(C)C [pepstatin] (Isovaleryl-VV[Sta]A[Sta]-OH) | – | inhibitor | inhibitor | reduce blood pressure in vivo | inhibitor
